Experimental data as given in EP1143970B1, “PYRIDINE COMPOUNDS, USE AND PREPARATION THEREOF” (priority 1999, dated 2000).
Where two headings read alike, the source gives them in different places. Marks after values point to notes of the source that are not given here.

Key:
human MX-1 mammary tumor [1] = assay: In vivo antitumor activity against s.c.-implanted human MX-1 mammary tumor xenograft; details: sc MX-1, Days 12-16
Text: (§1) The antitumor activity data of the acyl derivatives of DM-PEN vs MX-1 human mammary tumor xenograft implanted s.c. or i.c. with intraperitoneal (i.p.) or oral drug treatment are shown in Table 1 below.

human MX-1 mammary tumor [2] = assay: In vivo antitumor activity against i.c.-implanted human MX-1 mammary tumor xenograft; set-up: species or system mouse; details: for Median % ILS: I.C.-implanted MX-1, optimal doses (LD10 or less), schedule QD1-5, I.P., based on dying mice only
Text: as §1
Table 2Comparative Activity of PEN, DM-PEN and DM-ACYL-PEN Against […] Human MX-1 Mammary Tumor at Optimal Doses (LD10 or Less) and Schedule (QD1-5) Administered I.P.

Cytotoxicity in vitro = details: without metabolism
P388/BCNU = assay: Antitumor activity against IP-implanted P388/BCNU leukemia in mice; details: Q1D X 5 (1)
P388/L-PAM = assay: Antitumor activity against IP-implanted P388/L-PAM leukemia in mice
P388/CPA = assay: Antitumor activity against IP-implanted P388/CPA leukemia in mice; format: in vivo, murine; details: Q1D X 5 (1)
[3] = rats; muscle tremors, incoordination, convulsions and reduced activity; cited from earlier work
[4] = 14C-penclomedine, tumor-bearing rats; cited from earlier work
[5] = P388/L-PAM, IP 60.0 MG/KG/DOSE, Q1D X 5 (1)
[6] = P388/L-PAM, IP 90.0 MG/KG/DOSE, Q1D X 5 (1)
[7] = P388/L-PAM, IP 135.0 MG/KG/DOSE, Q1D X 5 (1)
[8] = P388/0, IP 60.0 MG/KG/DOSE, Q1D X 5 (1)
[9] = P388/0, IP 90.0 MG/KG/DOSE, Q1D X 5 (1)
[10] = P388/0, IP 135.0 MG/KG/DOSE, Q1D X 5 (1)

Structure (SMILES): COc1nc(C(Cl)(Cl)Cl)c(Cl)c(OC(=O)CI)c1Cl [DM-IA-PEN]
- Lethality at the stated dosage (LD level) (human MX-1 mammary tumor [1]; IP 60 mg/kg/dose): 60 (LD40)

Structure (SMILES): COc1nc(C(Cl)(Cl)Cl)c(Cl)c(OC(=O)c2ccncc2)c1Cl [DM-IN-PEN]
- Lethality at the stated dosage (LD level) (human MX-1 mammary tumor [1]; IP 90 mg/kg/dose): 90 (LD20)

Structure (SMILES): COCC(=O)Oc1c(Cl)c(OC)nc(C(Cl)(Cl)Cl)c1Cl [DM-MA-PEN]
- Median % ILS (human MX-1 mammary tumor [2]): 126^a %
- Median % ILS (dying mice only) (human MX-1 mammary tumor [2]; ic MX-1, IP 90 mg/kg/dose, Days 1-5): +126%

Structure (SMILES): CCCCCCCC(=O)Oc1c(Cl)c(OC)nc(C(Cl)(Cl)Cl)c1Cl [DM-O-PEN]
- Median % ILS (human MX-1 mammary tumor [2]): 121^b %

Structure (SMILES): COc1nc(C(Cl)(Cl)Cl)c(Cl)c(O)c1Cl [DM-PEN, 3,5-dichloro-2-methoxy-4-hydroxy-6-(trichloromethyl)pyridine]
- cytotoxic agents in vitro (in words) (Cytotoxicity in vitro): inactive
- 50-DAY SURV./ TOTAL (P388/BCNU; IP 60.0 MG/KG/DOSE): 0 / 6
- APPROX. NET LOG10 CHANGE IN TUMOR BURDEN AT END OF Rx (P388/BCNU; IP 60.0 MG/KG/DOSE): +0.6
- 50-DAY SURV./ TOTAL (P388/BCNU; IP 90.0 MG/KG/DOSE): 0 / 6
- % ILS (P388/BCNU; IP 90.0 MG/KG/DOSE): +65%
- 50-DAY SURV./ TOTAL (P388/BCNU; IP 135.0 MG/KG/DOSE): 0 / 6
- Lethality at the stated dosage (LD level) (P388/BCNU; IP 135.0 MG/KG/DOSE): LD17
- 50-DAY SDRV./ TOTAL (P388/L-PAM; [5]): 0 / 8
- APPROX. NET LOG10 CHANGE IN TUMOR BURDEN AT END OF Rx (P388/L-PAM; [5]): +1.5
- MEDIAN DAY OF DEATH (P388/L-PAM; [5]): 13.6
- 50-DAY SDRV./ TOTAL (P388/L-PAM; [6]): 0 / 6
- APPROX. NET LOG10 CHANGE IN TUMOR BURDEN AT END OF Rx (P388/L-PAM; [6]): +1.5
- 50-DAY SDRV./ TOTAL (P388/L-PAM; [7]): 0 / 6
- APPROX. NET LOG10 CHANGE IN TUMOR BURDEN AT END OF Rx (P388/L-PAM; [7]): +1.5
- Lethality at the stated dosage (LD level) (P388/L-PAM; [7]): 1.033
- 50-DAY SURV./ TOTAL (P388/CPA; IP 60.0 MG/KG/DOSE): 0 / 6
- 50-DAY SURV./ TOTAL (P388/CPA; IP 90.0 MG/KG/DOSE): 0 / 6
- 50-DAY SURV./ TOTAL (P388/CPA; IP 135.0 MG/KG/DOSE): 0 / 6
- Median % ILS (human MX-1 mammary tumor [2]): 60%
- 50-DAY SURV./ TOTAL (P388/0; [8]): 0 / 6
- MEDIAN DAY OF DEATH (P388/0; [8]): 18.0
- 50-DAY SURV./ TOTAL (P388/0; [9]): 0 / 6
- MEDIAN DAY OF DEATH (P388/0; [9]): 18.0
- 50-DAY SURV./ TOTAL (P388/0; [10]): 0 / 6
- MEDIAN DAY OF DEATH (P388/0; [10]): 8.6

Structure (SMILES): COc1nc(C(Cl)(Cl)Cl)c(Cl)c(OC(=O)c2cccs2)c1Cl [DM-TC-PEN]
- Median % ILS (human MX-1 mammary tumor [2]): 100^d %

Structure (SMILES): N[C@@H](Cc1ccc(N(CCCl)CCCl)cc1)C(=O)O [L-PAM, melphalan]
- 50-DAY SDRV./ TOTAL (P388/L-PAM; mouse, in vivo, ip, 15 mg/kg): 0 / 6
- APPROX. NET LOG10 CHANGE IN TUMOR BURDEN AT END OF Rx (P388/L-PAM; mouse, in vivo, ip, 15 mg/kg): -1.6
- MEDIAN DAY OF DEATH (P388/L-PAM; mouse, in vivo, ip, 15 mg/kg): 16.0
- 50-DAY SDRV./ TOTAL (P388/L-PAM; mouse, in vivo, ip, 20 mg/kg): 0/6
- APPROX. NET LOG10 CHANGE IN TUMOR BURDEN AT END OF Rx (P388/L-PAM; mouse, in vivo, ip, 20 mg/kg): -1.6
- MEDIAN DAY OF DEATH (P388/L-PAM; mouse, in vivo, ip, 20 mg/kg): 16.0
- 50-DAY SURV./ TOTAL (P388/0; mouse, in vivo, ip, 15 mg/kg): 6 / 6
- 50-DAY SURV./ TOTAL (P388/0; mouse, in vivo, ip, 20 mg/kg): 6 / 6
- APPROX. NET LOG10 CHANGE IN TUMOR BURDEN AT END OF Rx (P388/0; mouse, in vivo, ip, 20 mg/kg): ca -6.6

Structure (SMILES): COc1nc(C(Cl)(Cl)Cl)c(Cl)c(OC)c1Cl [PEN, 3,5-dichloro-2,4-dimethoxy-6-(trichloromethyl)pyridine]
- cytotoxic agents in vitro (in words) (Cytotoxicity in vitro): inactive
- 50-DAY SURV./ TOTAL (P388/BCNU; IP 60.0 MG/KG/DOSE): 0 / 6
- 50-DAY SURV./ TOTAL (P388/BCNU; IP 90.0 MG/KG/DOSE): 0 / 6
- 50-DAY SURV./ TOTAL (P388/BCNU; IP 135.0 MG/KG/DOSE): 0 / 6
- MEDIAN DAY OF DEATH (P388/BCNU; IP 135.0 MG/KG/DOSE): 11.5
- neurotoxicity [3]: Dose related neurotoxicity
- radioactive species in the brain [4]: predominant radioactive species in the brain was penclomedine
- 50-DAY SDRV./ TOTAL (P388/L-PAM; [5]): 0 / 6
- 50-DAY SDRV./ TOTAL (P388/L-PAM; [6]): 0 / 6
- APPROX. NET LOG10 CHANGE IN TUMOR BURDEN AT END OF Rx (P388/L-PAM; [6]): +1.5
- 50-DAY SDRV./ TOTAL (P388/L-PAM; [7]): 0 / 6
- APPROX. NET LOG10 CHANGE IN TUMOR BURDEN AT END OF Rx (P388/L-PAM; [7]): +1.5
- 50-DAY SURV./ TOTAL (P388/CPA; IP 60.0 MG/KG/DOSE): 0 / 6
- MEDIAN DAY OF DEATH (P388/CPA; IP 60.0 MG/KG/DOSE): 10.5
- 50-DAY SURV./ TOTAL (P388/CPA; IP 90.0 MG/KG/DOSE): 0 / 6
- MEDIAN DAY OF DEATH (P388/CPA; IP 90.0 MG/KG/DOSE): 10.5
- 50-DAY SURV./ TOTAL (P388/CPA; IP 135.0 MG/KG/DOSE): 0 / 6
- MEDIAN DAY OF DEATH (P388/CPA; IP 135.0 MG/KG/DOSE): 10.5
- Median % ILS (human MX-1 mammary tumor [2]): 88%
- 50-DAY SURV./ TOTAL (P388/0; [8]): 0 / 6
- MEDIAN DAY OF DEATH (P388/0; [8]): 14.5
- 50-DAY SURV./ TOTAL (P388/0; [9]): 0 / 6
- APPROX. NET LOG10 CHANGE IN TUMOR BURDEN AT END OF Rx (P388/0; [9]): -0.6
- 50-DAY SURV./ TOTAL (P388/0; [10]): 0 / 6
- APPROX. NET LOG10 CHANGE IN TUMOR BURDEN AT END OF Rx (P388/0; [10]): -4.6
